Test results from ChEMBL document CHEMBL5346961, “Discovery and Evaluation of 3-Quinoxalin Urea Derivatives as Potent, Selective, and Orally Available ATM Inhibitors Combined with Chemotherapy for the Treatment of Cancer via Goal-Oriented Molecule Generation and Virtual Screening” (J Med Chem, 2023).

Tests used:
[1] = target: T1, Serine-protein kinase ATM (Homo sapiens, UniProt Q13315); assay: Inhibition of ATM (unknown origin) preincubated with compound for 30 mins followed by substrate addition and measured after 2 hrs by HTRF method
[2] = Metabolic stability in human liver microsomes assessed as clearance at 1 uM in presence of NADPH-regenerating system by LC-MS/MS analysis; assay type: ADME, Microsome
[3] = target: T1, Serine-protein kinase ATM; assay: Inhibition of ATM (unknown origin) assessed as remaining activity at 1 uM preincubated with compound for 30 mins followed by substrate addition and measured after 2 hrs by HTRF method relative to control; details: time 2.5 hrs
HCT-116 [4] = assay: Inhibition of colony formation in human HCT-116 cells preincubated for 1 hr followed by exposure to 2 Gy gamma irradiation and measured after 1 week by crystal violet staining based […] assay; assay type: functional, cell-based; details: HCT-116, light or radiation study
[5] = target: T1, Serine-protein kinase ATM; assay: Inhibition of ATM (unknown origin) assessed as remaining activity at 0.01 uM preincubated with compound for 30 mins followed by substrate addition and measured after 2 hrs by HTRF method relative to control; details: time 2.5 hrs
[6] = Metabolic stability in human liver microsomes assessed as half life at 1 uM in presence of NADPH-regenerating system by LC-MS/MS analysis; assay type: ADME, Microsome
HCT-116 [7] = assay: Inhibition of colony formation in human HCT-116 cells at 0.01 uM preincubated for 1 hr followed by exposure to 2 Gy gamma irradiation and measured after 1 week by crystal violet staining based […] assay relative to control; assay type: functional; details: HCT-116, light or radiation study, time 169 hrs
[8] = target: Serine/threonine-protein kinase ATR (Homo sapiens, UniProt Q13535); assay: Inhibition of ATR (unknown origin) assessed as remaining activity at 1 uM in presence of [gamma33P-ATP] by radiometric assay
HCT-116 [9] = assay: Antiproliferative activity against human HCT-116 cells assessed as cell survival at 1 uM incubated for 6 days by MTT assay relative to control; assay type: functional; details: HCT-116, 144 h, time 6 day, read-out: Survival

T1 sequence (Q13315 whole entry): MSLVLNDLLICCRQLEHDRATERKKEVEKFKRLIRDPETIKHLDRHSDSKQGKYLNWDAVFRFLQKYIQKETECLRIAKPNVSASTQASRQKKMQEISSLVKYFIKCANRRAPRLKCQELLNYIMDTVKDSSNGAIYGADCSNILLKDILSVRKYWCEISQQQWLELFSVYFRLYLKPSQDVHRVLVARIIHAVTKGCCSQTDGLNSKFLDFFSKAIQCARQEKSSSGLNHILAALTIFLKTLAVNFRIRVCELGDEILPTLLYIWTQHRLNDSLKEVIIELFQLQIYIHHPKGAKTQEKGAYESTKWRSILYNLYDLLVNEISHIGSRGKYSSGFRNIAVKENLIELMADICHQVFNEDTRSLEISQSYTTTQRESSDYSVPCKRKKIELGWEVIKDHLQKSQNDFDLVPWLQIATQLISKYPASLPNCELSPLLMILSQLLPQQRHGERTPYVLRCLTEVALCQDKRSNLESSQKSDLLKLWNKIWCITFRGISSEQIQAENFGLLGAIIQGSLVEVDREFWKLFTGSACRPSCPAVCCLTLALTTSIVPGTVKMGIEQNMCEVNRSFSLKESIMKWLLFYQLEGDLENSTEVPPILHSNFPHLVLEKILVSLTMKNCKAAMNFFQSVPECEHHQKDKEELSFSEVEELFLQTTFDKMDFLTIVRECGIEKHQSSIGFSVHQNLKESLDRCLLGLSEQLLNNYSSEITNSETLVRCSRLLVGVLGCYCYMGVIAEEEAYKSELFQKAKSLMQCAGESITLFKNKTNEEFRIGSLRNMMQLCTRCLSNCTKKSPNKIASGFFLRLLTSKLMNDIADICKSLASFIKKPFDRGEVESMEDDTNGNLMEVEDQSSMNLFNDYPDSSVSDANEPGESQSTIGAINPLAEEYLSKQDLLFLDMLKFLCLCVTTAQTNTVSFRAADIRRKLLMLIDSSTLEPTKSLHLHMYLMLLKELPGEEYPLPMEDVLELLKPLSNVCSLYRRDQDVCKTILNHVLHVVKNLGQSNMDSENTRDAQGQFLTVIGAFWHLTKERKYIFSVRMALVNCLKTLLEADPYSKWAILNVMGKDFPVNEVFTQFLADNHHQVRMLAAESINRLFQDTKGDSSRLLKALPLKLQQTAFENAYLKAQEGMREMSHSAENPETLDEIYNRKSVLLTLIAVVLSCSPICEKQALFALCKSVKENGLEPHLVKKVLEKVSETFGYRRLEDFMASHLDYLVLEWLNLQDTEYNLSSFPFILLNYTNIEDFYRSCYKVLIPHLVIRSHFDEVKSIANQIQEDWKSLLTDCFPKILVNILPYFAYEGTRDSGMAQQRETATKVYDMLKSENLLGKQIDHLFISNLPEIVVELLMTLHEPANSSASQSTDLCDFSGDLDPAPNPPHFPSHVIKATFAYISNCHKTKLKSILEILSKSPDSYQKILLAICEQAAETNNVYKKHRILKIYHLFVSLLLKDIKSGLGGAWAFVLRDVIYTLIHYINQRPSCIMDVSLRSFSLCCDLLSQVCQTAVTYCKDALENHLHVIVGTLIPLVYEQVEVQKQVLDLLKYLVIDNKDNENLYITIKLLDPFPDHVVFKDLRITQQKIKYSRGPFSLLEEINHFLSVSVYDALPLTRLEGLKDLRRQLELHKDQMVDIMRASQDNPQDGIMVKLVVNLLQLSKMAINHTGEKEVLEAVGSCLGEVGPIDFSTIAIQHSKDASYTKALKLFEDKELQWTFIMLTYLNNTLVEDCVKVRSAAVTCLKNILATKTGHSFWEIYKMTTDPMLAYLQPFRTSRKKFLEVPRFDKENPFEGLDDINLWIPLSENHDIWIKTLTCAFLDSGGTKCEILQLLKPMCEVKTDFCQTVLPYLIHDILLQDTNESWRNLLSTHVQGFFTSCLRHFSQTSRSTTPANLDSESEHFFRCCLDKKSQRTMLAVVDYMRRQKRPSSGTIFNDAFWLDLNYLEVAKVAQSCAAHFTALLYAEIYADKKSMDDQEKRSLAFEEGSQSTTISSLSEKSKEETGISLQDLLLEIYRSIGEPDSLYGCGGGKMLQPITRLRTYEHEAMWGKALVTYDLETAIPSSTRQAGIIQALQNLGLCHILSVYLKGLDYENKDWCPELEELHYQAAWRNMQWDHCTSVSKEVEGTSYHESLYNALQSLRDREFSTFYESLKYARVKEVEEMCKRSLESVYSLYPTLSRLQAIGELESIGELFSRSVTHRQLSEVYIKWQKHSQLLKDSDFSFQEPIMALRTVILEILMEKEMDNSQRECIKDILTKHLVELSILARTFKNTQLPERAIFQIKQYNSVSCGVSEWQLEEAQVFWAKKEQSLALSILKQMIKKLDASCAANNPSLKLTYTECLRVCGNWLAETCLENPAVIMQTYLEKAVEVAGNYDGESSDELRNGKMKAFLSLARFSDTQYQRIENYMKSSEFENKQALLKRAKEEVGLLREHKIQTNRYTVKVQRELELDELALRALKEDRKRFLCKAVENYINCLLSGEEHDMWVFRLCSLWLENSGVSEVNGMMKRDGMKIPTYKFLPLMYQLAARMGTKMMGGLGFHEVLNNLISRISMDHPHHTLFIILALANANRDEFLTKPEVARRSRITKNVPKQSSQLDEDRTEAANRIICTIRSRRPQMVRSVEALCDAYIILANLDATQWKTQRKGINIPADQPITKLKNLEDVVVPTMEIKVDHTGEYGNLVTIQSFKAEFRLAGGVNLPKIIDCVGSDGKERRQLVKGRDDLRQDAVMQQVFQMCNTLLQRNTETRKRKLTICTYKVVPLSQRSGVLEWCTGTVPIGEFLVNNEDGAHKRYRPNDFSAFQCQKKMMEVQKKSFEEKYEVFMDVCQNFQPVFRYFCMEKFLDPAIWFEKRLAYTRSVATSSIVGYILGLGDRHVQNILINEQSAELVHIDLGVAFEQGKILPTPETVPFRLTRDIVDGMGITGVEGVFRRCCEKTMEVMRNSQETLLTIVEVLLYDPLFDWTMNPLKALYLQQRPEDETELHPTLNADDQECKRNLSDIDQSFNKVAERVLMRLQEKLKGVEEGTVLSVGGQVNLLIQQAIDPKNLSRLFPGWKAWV

Structure (SMILES) | IC50 [1] [nM] | CLH [2] [mL/min/g] | Activity [3] [%] | IC50 (HCT-116 [4]) [nM] | Activity [5] [%] | half-life at 1 µM [6] [min] | inhibition at 0.01 µM (HCT-116 [7]) [%] | Activity [8] [%] | viability at 1 µM (HCT-116 [9]) [%]
Cc1nc(OCCCN2CCCCC2)ccc1-c1ccc2ncc(N(C)C(=O)NC(C)C)nc2c1 | 9 | 3 | -4 | 21.9 | 16 | 462 | 48.2 | – | –
CN(C)CCCOc1ccc(-c2ccc3ncc(N(C)C(=O)Nc4ccccc4Cl)nc3c2)cn1 | 0.9 | 43 | – | 4.35 | 3 | 33 | 84.4 | 102 | > 83
CN(C)CCCOc1ccc(-c2ccc3ncc(N(C)C(=O)NC4CCCCC4)nc3c2)cn1 | 0.9 | 94 | – | 0.54 | -1 | 15 | 99.6 | 94 | > 83
CN(C)CCCOc1ccc(-c2ccc3ncc(N(C)C(=O)NC4CCCC4)nc3c2)cn1 | 1 | 64 | – | 1.56 | 2 | 22 | 91.9 | 100 | > 83
CCN(CC)CCCOc1ccc(-c2ccc3ncc(N(C)C(=O)NC(C)C)nc3c2)cn1 | 1 | 14 | -3 | 6.97 | 19 | 99 | 72.8 | – | > 83
C=CCNC(=O)N(C)c1cnc2ccc(-c3ccc(OCCCN(C)C)nc3)cc2n1 | 2 | 55 | – | 12.2 | 11 | 25 | 49.7 | 103 | –
CCCCNC(=O)N(C)c1cnc2ccc(-c3ccc(OCCCN(C)C)nc3)cc2n1 | 0.8 | 64 | – | 7.65 | 3 | 22 | 92.7 | 105 | > 83
CC(C)NC(=O)N(C)c1cnc2ccc(-c3ccc(OCCCN4CCOCC4)nc3)cc2n1 | 3 | 24 | – | 7.13 | 4 | 61 | 64.1 | – | > 83
CC(C)NC(=O)N(C)c1cnc2ccc(-c3ccc(OCCCN(C)C)nc3)cc2n1 | 2 | 40 | – | 8.94 | 14 | 35 | 58.4 | 105 | > 83
